The values that follow come from patent publication US8084602B2, “Porphyrin derivatives and their use in photodynamic therapy” (Destiny Pharma Limited, priority 2002, dated 2011).

One data set relates to E. coli ATCC 25922. Description: Cell survival (colony forming unit) with or without illumination. Particulars: for Log reduction: E. coli. The class given is cell-based, Escherichia coli. The procedure: (§1) The toxic effects of exemplary compounds of the invention against two bacterial strains, the Gram negative bacterium Escherichia coli (strain ATCC 25922) and the Gram positive bacterium Staphylococcus aureus (methicillin-resistant strain ATTC BAA-44), were evaluated by measuring the extent of growth inhibition (bacteriostatic effect) and growth […] (cytocidal effect) in the dark and upon light exposure. Initial compound screening was undertaken using white light [390-740 nm] (150 mW/cm^2) for various timepoints of a concentration of 3 μM (see Table 1). Further experiments were undertaken on those compounds identified from this initial screen using a light source emitting light at a wavelength between 417-420 nm at 15.2 mW/cm^2, 13.68 J/cm^2 (Waldmann Eclairage SA, France) (see Table 20.
(§2) For the further investigation of the exemplary compounds (Table 2), the following protocol was adopted: • (i) Bacteria (S. aureus BAA-44 and E. coli 25922) were grown in brain heart infusion (BHI) broth until they reached the stationary phase of growth. • (ii) The cells were harvested by centrifugation (3000 g for 15 min) with a table centrifuge, washed with 10 mM PBS at pH 7.4 containing 2.7 mM KCl and 0.14 M NaCl and suspended in PBS at an optical density of 0.7 at 650 nm corresponding to 10^8-10^9 cells/ml. • (iii) The bacteria, at the desired cell density (˜10^8 cells/ml) were incubated for 5 min in the dark with various concentrations of the exemplary compounds. • (iv) At the end of the incubation period the cells were washed three times with PBS, suspended in PBS, transferred into a 96-well microtitre plate (200 μl/well) and illuminated for 15 min with the Waldmann light source (15.2 mW/cm^2; 13.7 J/cm^2). The cells were illuminated from the bottom of the plate laying it on the glass cover of the lamp. • (v) After illumination, cell survival was determined by plating serially diluted aliquots of treated and untreated (i.e. no exemplary compound or light present) cells onto brain heart agar (BHA) and counting the number of colonies after 18-24 h incubation at 37° C.
(§3) the above colony forming unit (CFU) protocol was also used to investigate the photodynamic activity of very low concentrations of the compounds of the invention.

The subject of data set [1] is bacterial cells compared to human skin cells. Description: Selectivity for bacteria compared to human skin cells. The class given is cell-based. Particulars: at a dose of 0.01 μM. The procedure:
as §2
(§4) Test compounds were screened for toxicity against cultured human skin cells using normal human epidermal keratinocytes (NHEK) and normal human dermal fibroblasts (NHDF), purchased from CellSystems Biotechnologie GmbH, Germany.
The NHEK and NHDF cells were used between passages 3 and 10. The cells were seeded with 7.5 and/or 15×10^4 cells/well (microtitreplate) and allowed to attach overnight in an incubator (37° C., 5% CO2). After incubation with different concentrations of the selected photosensitisers, the cells were illuminated for fifteen minutes (Light source 236, Waldmann; 15.2 mW/cm^2, 13.7 J/cm^2) and then incubated for 24 hours in the dark.
(§5) Phototoxicity was tested by standard MTT-assay (Mossman et al., 1983, Immunological Methods 65:55-63). MTT is an indicator of metabolically active cells. Dependent on enzyme activity in mitochondria a colour reaction can be visualised, which can be measured by ELISA reader (540 nm). The cell viability data were normalised, i.e. the OD values of cells after PDT without photosensitisers were adjusted to one. Each experiment was repeated three times.

Data set [2] deals with S. aureus ATCC BAA-44 (a methicillin resistant S. aureus). Description: Cell survival (colony forming unit) with or without illumination. It counts as cell-based, Staphylococcus aureus. Particulars: for dark toxicity against BAA-44: absence of light, at the concentrations tested (FIG. 4); for Log reduction: S. aureus. As to the method: as §1, §2, §3
For data set [3], the system named is normal human epidermal keratinocytes (NHEK). As to the kind of experiment: Toxicity against human skin cells, MTT-assay. The class given is cell-based. As to the method: as §4
(§6) The NHEK and NHDF cells were used between passages 3 and 10. The cells were seeded with 7.5 and/or 15×10^4 cells/well (microtitreplate) and allowed to attach overnight in an incubator (37° C., 5% CO2). […]
as §5

Data set [4] concerns normal human dermal fibroblasts (NHDF). As to the kind of experiment: Toxicity against human skin cells, MTT-assay. It counts as cell-based. As to the method: as §4, §6, §5
(In general: Formazan colour is commonly taken as a measure of viable cells.)

Data set [5] in a line: Chemical stability, qualitative stress tests (HPLC, LC-MS). It counts as physicochemical. Particulars: solid, aqueous solution and PBS; 7 days each at 50° C., 70° C., 90° C. The procedure:
The following HPLC methodology was established for the analysis of the exemplary compounds of the invention.
The method involves detection by UV at a wavelength of 420 nm, which is very specific for these compounds. In order to monitor impurities not related to the porphyrin structure (and therefore not absorbing at 420 nm) UV spectra of the whole chromatograms were also recorded between 200 nm and 700 nm by DAD (diode array detector) in certain experiments.
Qualitative stress tests were undertaken on the exemplary compounds of the invention. Analysis was undertaken by HPLC & LC-MS. The compounds were stress tested in solid form, in an aqueous solution and a solution made up in phosphate-buffered saline buffer. The samples were initially incubated for 7 days at 50° C. and a sample removed for testing. The samples were then incubated for a further 7 days at 70° C., samples removed as before and the samples incubated further for 7 days at 90° C. HPLC analysis of freshly prepared solutions was undertaken and compared to the samples after 7, 14 and 21 days incubation. A visual comparison of the chromatograms was then undertaken and the content of the main products and by-products as area percentage values determined (see FIG. 11).

Data set [6] deals with Guinea Pig skin (intact and abraded). Description: Photo-toxicity test (OECD 406 based). It counts as in vivo. As to the method:
Clinical and histological examination of the skin test sites was conducted at 24 and 72 hours post illumination in classical photo-toxicity testing fashion. Biopsies were not done from contiguous sites to prevent any interaction in case of suture. Gross findings were evaluated at the moment of the biopsy. Before giving a score to each endpoint (erythema, oedema and inflammation), data for each subject were compared to the data from the other animals and to control data. A score from 0 to 4 was given for each site and for each endpoint according to the Draize Scale (for inflammation, a scale similar to the Draize Scale was created after microscopic observation of all skin sections, comparing with normal skin and with findings of step-1). A mean score was then calculated for each animal and for each sampling point.

Where [7] appears, read: dark toxicity (no illumination), 0.01 μM.
Where [8] appears, read: dark toxicity (no illumination), 10 μM.
[9] abbreviates: photodynamic activity, 0.01 μM, illumination 15 min.
[10] abbreviates: dark toxicity (no illumination), 1 μM.
Setting [11] is: photodynamic activity, 1 μM, illumination 15 min.
The mark [12] stands for this setting: dark toxicity, 10 μM, no illumination.
Where [13] appears, read: photodynamic activity (light toxicity), 0.01 μM, illumination 15 min.
Where [14] appears, read: photodynamic activity (light toxicity), 0.1 μM, illumination 15 min.
The mark [15] stands for this setting: photodynamic activity (light toxicity), 1 μM, illumination 15 min.
[16] abbreviates: dark toxicity, 1 μM, no illumination.

Bounds are passed on as bounds.

Take `CN(C)CCC[N+](C)(C)CCCOc1ccc(-c2c3nc(cc4ccc([nH]4)c(-c4ccc(OCCC[N+](C)(C)CCCN(C)C)cc4)c4nc(cc5ccc2[nH]5)C=C4)C=C3)cc1.[Cl-].[Cl-]` [Compound 8, 5,15-bis-(4-{3-[(3-Dimethylamino-propyl)-dimethylammonio]-propyloxy}-phenyl)-porphyrin dichloride]: the Log reduction in the data set on E. coli ATCC 25922 (setting [7]) is recorded as <1 (<10^−1); in the data set with E. coli ATCC 25922 (setting [8]), 2 (10^−2); in the data set with E. coli ATCC 25922 (setting [9]), <1 (<10^−1); with E. coli ATCC 25922 (photodynamic activity, 10 μM, illumination 15 min), >6 (>10^−6); in data set [2] (setting [10]) it was <1 (<10^−1); in data set [2] (setting [8]), <1 (<10^−1). For the same molecule, the Log reduction was 3 in data set [2] (setting [9]); 3 (10^−3) in data set [2] (photodynamic activity, 0.1 μM, illumination 15 min); 6 (10^−6) in data set [2] (setting [11]). For the same molecule, the “toxicity to bacterial cells compared to human skin cells” value in data set [1] is recorded as “preferentially toxic to bacterial cells compared to human skin cells”. Further, the “dark toxicity against BAA-44” value in data set [2] was “negligible”. For the same molecule, the Survival came out at 97% in data set [3] (setting [12]); 98% in data set [3] (setting [13]); 33% in data set [3] (setting [14]); 0.5% in data set [3] (setting [15]); 100% in data set [4] (setting [16]); 68% in data set [4] (setting [12]). Moreover, the Survival was found to be 100% in data set [4] (setting [13]), 12% in data set [4] (setting [14]) and 3% in data set [4] (setting [15]). The “chemical stability under stress test” value in data set [5] is “less stable than Compounds 10 and 12”.

On to `C[N+](C)(C)CCCOc1ccc(-c2c3nc(cc4ccc([nH]4)c(-c4ccc(OCCC[N+](C)(C)C)cc4)c4nc(cc5ccc2[nH]5)C=C4)C=C3)cc1.[Cl-].[Cl-]` [Compound 10, 5,15-bis-[4-(3-Trimethylammonio-propyloxy)-phenyl]-porphyrin dichloride], for which the “Concentration of Compound 10 required to obtain a 3 log reduction in cells (μM)” value was 0.1 μM with E. coli ATCC 25922 (E. coli ATCC 25922) and 0.005 μM in data set [2] (Staphylococcus aureus ATCC BAA-44). The Log reduction was <1 (<10^−1) in the data set on E. coli ATCC 25922 (setting [10]), >6 (>10^−6) in the data set with E. coli ATCC 25922 (setting [11]), <1 (<10^−1) in data set [2] (setting [7]) and >4 (>10^−4) in data set [2] (setting [9]). Also, in data set [1], the “toxicity to bacterial cells compared to human skin cells” value was “preferentially toxic to bacterial cells compared to human skin cells”. For the same molecule, the photo-toxic potential result in data set [6] (32 μM topical formulation, 24 hours on intact and abraded skin, then 30 minute light exposure, examined 24 and 72 hours post illumination) is “no clinical signs or symptoms or histological findings that suggested any photo-toxic potential”. The “damage to the surface of the skin” value in data set [6] (32 μM, in the absence of light) is “did not result in any damage to the surface of the skin”. In data set [2] (BAA-44, 0.0025 μM, with light), this molecule showed a bacteria killed of 90%. Moreover, the “dark toxicity against BAA-44” value in data set [2] is “negligible”. The Survival in data set [3] (setting [16]) stood at 100%; in data set [3] (setting [12]), 51%; in data set [3] (setting [13]), 62%; in data set [3] (setting [14]) it was 1.0%; in data set [4] (setting [16]) it was 100%; in data set [4] (setting [12]), 91%. For the same molecule, the figures for the Survival in data set [4] (setting [13]), in data set [4] (setting [14]) and in data set [4] (setting [15]) were 80%, 8% and 0.5%, respectively. For the same molecule, the “chemical stability under stress test” value in data set [5] is recorded as “good stability”.
